Reference: patent EP0907731B1, “METABOTROPIC GABA(B) RECEPTORS, RECEPTOR-SPECIFIC LIGANDS AND THEIR USES” (Novartis AG, priority 1996, dated 1997)
Entries after “also recorded” stand apart in the source; their conditions may differ. Like-named read-outs stand apart in the source and are kept apart here.

How the values were obtained:
[1] = target: recombinant GABABR1a receptors; conditions: read-out: COS 1 cells IC50, inhibition of [125I]CGP 64213 binding
Description: In order to isolate membranes containing the cloned GABAB receptor, culture dishes containing GABAB receptor-expressing COS cells are washed twice with Krebs-Henseleit-Tris buffer. Afterwards the cells are scraped off the dishes, homogenised in a glass-glass homogeniser and centrifuged for 30 min at 4°C at 40'000 g. The homogenisation and centrifugation step is repeated once. The pellet is resuspended in buffer and stored in liquid nitrogen until further analysis.

[2] = target: GABAB receptors; conditions: inhibition of [125I]CGP 64213 binding, native receptors; read-out: Rat cerebral cortex IC50
Description: The animals are decapitated, the brains removed, the cerebral cortices dissected and homogenised in 10 volumes of ice-cold 0.32 M sucrose, containing MgCl2 (1 mM) and K2HPO4 (1 mM), with a glass/Teflon homogeniser. The membranes are centrifuged at 1000 x g for 15 min, the pellet resuspended and the centrifugation repeated. The supernatants are pooled and centrifuged at 20000 x g for 15 min. The pellet is osmotically shocked by resuspension in 10 volumes H2O and kept on ice for 30 min. […] The membranes are thawed at room temperature, washed three times with Krebs-Henseleit buffer by centrifugation at 20000 x g for 15 min, left overnight at 4°C and washed again three times. The final pellet is resuspended with a glass/Teflon homogenise in 20 ml of the same buffer. 2 ml aliquots are frozen and stored in liquid nitrogen. Just before use membranes are thawed quickly in a water bath at 37°C and again washed by centrifugation at 20000 x g for 15 min with the same buffer three times.
The incubation is terminated by filtration through GF/B Whatman glass fibre filters.

[3] = tested on: non-transfected HEK293 cells; experiment: Forskolin-stimulated cAMP formation in non-transfected HEK293 cells (control); format: cell-based; conditions: untransfected HEK293 cells
Description: • Figure 1 a depicts the expression of the recombinant GABABR1a receptor in COS1 cells. […]. Autoradiography of a 6% SDS gel with 25µg protein loaded per lane is shown. […]. The apparent molecular weight of native and recombinant GABAB receptors are estimated from gel mobilities relative to those of SDS-PAGE standards (BioRad). […]. Cell membranes of the tissues indicated are photoaffinity-labelled with [[…] and subjected to SDS-PAGE and autoradiography. a, b, Selectivity of the photoaffinity ligand [[…]. a, Differential distribution of GABAB receptor variants of 130K and 100K in tissues of the nervous system. […]. Incubation of membrane extracts with the photoaffinity ligand is carried out in the presence of competitor substances at the concentrations indicated, c, GABAB receptors are N-glycosylated. Photoaffinity-labelled rat cortex cell membranes are incubated with 0.4 units N-glycosidase F or 0.6 milliunits O-glycosidase (Boehringer Mannheim). d, Photolabelling of GABAB receptors from different species. […]
GABAB receptors are described to inhibit adenylate cyclase activity, stimulate phospholipase A2, activate K^+-channels, inactivate voltage-dependent Ca^2+-channels and to modulate inositol phospholipid hydrolysis. […] The ability of GABABR1a stably expressed in HEK293 cells to reduce forskolin-stimulated CAMP accumulation is analysed (Fig. 5). […]

[4] = tested on: rat cortical slice preparations; conditions: cited from earlier work
[5] = target: T1, GABABR1a (Rattus norvegicus, UniProt Q9Z0U4); experiment: Forskolin-stimulated cAMP accumulation in HEK293 cells stably expressing GABABR1a; format: cell-based; conditions: 10 µM antagonist, 300 µM L-baclofen
T1 construct: either the full-length cDNA clones disclosed herein or fragments thereof can be used as probes; expressed in transfected cells
T1 sequence (Q9Z0U4 20-960): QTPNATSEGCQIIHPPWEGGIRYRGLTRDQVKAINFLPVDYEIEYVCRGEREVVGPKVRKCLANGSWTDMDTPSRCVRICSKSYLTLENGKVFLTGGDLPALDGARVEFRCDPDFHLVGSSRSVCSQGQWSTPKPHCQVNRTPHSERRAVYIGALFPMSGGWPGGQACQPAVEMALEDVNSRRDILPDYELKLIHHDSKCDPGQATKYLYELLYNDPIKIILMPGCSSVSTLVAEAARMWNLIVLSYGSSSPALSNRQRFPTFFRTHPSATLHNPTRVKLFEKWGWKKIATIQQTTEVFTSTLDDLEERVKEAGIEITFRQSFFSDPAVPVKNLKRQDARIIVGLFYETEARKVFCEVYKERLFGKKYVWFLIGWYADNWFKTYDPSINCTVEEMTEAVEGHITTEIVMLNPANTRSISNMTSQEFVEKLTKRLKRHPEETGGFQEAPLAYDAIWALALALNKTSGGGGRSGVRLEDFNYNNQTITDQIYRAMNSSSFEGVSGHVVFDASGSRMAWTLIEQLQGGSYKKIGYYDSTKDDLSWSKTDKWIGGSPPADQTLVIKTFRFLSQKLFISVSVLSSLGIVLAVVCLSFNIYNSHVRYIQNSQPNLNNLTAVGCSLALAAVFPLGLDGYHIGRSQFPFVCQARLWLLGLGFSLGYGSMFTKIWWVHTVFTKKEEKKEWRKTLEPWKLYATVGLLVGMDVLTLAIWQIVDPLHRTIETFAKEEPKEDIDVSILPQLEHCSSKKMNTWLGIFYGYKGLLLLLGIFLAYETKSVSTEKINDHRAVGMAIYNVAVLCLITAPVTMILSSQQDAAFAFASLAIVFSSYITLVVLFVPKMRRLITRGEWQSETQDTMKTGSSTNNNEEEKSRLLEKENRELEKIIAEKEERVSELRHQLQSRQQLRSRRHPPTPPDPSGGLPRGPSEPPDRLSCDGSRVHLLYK
From the text: GABAB receptors are described to inhibit adenylate cyclase activity, stimulate phospholipase A2, activate K^+-channels, inactivate voltage-dependent Ca^2+-channels and to modulate inositol phospholipid hydrolysis. As GABABR1a and -b have identical sequence in all domains predicted to be intracellular they are expected to be able to couple to the same effector systems. […] We chose concentrations of forskolin and L-baclofen that should produce a maximal effect.

[6] = tested on: native GABAB receptors; experiment: Photoaffinity labelling of membranes with [125I]CGP 71872 in the presence of competitor substances; format: binding, rat
Description: The incubation is terminated by centrifugation at 20 000 x g for 10 min at 4°C. This step removed free unbound photoaffinity label. […] The suspension is centrifuged at 20 000 x g for 10 min and resuspended at a concentration of 8mg/ml protein in buffer. […] The labelled membranes could be stored at -80°C.
Furthermore, native GABAB receptors are photoaffinity-labelled in the presence of various competitor substances indicated in Figure 4b.

NCCCP(=O)(O)C(F)F [CGP 47656]
IC50 [1]: 12.3 µM | IC50 [2]: 0.28 µM

NC[C@H](CC(=O)O)c1ccc(Cl)cc1 [L-baclofen]
inhibition of forskolin-stimulated cAMP formation [3]: No L-baclofen response; also recorded: does not inhibit | reduction of forskolin-stimulated cAMP accumulation [4]: about 40%

C[C@H](NC[C@H](O)CP(=O)(O)CC1CCCCC1)c1ccc(Cl)c(Cl)c1 [CGP 54626A]
effect on the L-baclofen inhibition of forskolin-stimulated cAMP accumulation [5]: antagonised | [125I]CGP 71872 labelling in the presence of excess unlabelled antagonist [6]: no radioactivity is bound to the membranes | [125I]CGP 71872 labelling in the presence of excess unlabelled antagonist ([6]; listed as CGP54626A): inhibited
